Like-named read-outs stand apart in the source and are kept apart here.
Assay: In vitro (pH stability) assay: intramolecular cyclization-release of capsaicin from the prodrug in buffer
Type: physicochemical
Settings: for stability at pH 4.5 at room temperature in comparison to the non-acylated prodrug (compound 6): pH 4.5, RT
Procedure: The compounds described herein are examples of pH activated prodrugs whereby upon exposure to a specific pH, the half-life of the intramolecular cyclization-release reaction is determined. The intramolecular cyclization-release reaction results in the concomitant formation of a cyclic urea with the release of the parent drug.
Compounds were incubated in the buffer/biological media indicated. The reactions were conducted at either room temperature or 37° C. In some embodiments, additional common ingredients/formulations which may be used in buffers for the testing of the cyclization-release of the compounds described herein include but are not limited to: N-(2-Acetamido)-2-aminoethanesulfonic acid, N-(2-Acetamido)iminodiacetic acid, 2-Amino-2-methyl-1,3-propanediol, salts of bicarbonate, N,N-Bis(2-hydroxyethyl)glycine, 2-Bis(2-hydroxyethyl)amino-2-(hydroxymethyl)-1,3-propanediol, 3-(Cyclohexylamino)-1-propanesulfonic acid, 2-(Cyclohexylamino)ethanesulfonic acid, salts of carbonate, salts of citrate, 4-(2-Hydroxyethyl)-1-piperazinepropanesulfonic acid, salts of glycine, salts of Glycyl-glycine, 4-(2-Hydroxyethyl)piperazine-1-ethanesulfonic acid, 4-Morpholineethanesulfonic acid, 4-Morpholinepropanesulfonic acid, 1,4-Piperazinediethanesulfonic acid, salts of phosphate, salts of tartrate, 2-[(2-Hydroxy-1,1-bis(hydroxymethyl)ethyl)amino]ethanesulfonic acid, Tris(2-hydroxyethyl)amine, and salts of EDTA.
Samples were collected at specific time points, quenched with a 1.0% TFA in acetonitrile solution to stop the cyclization-release reaction and analyzed by HPLC for formation of released capsaicin, cyclic urea by-product, and consumption of starting compound in plasma and cerebrospinal fluid (CSF).

[1] = buffer (simulated physiological conditions), simulated physiological conditions, pH 7.4 & 37° C., read-out: half-life of conversion to capsaicin
[2] = pH = 4.5 (0.1M aqueous sodium acetate buffer), RT, read-out: Intramolecular Cyclization-Release Half-life (T1/2) at pH 4.5 & RT (converted)
[3] = pH = 7.4 (0.2M aqueous tris buffer), 37° C., read-out: Intramolecular Cyclization-Release Half-life (T1/2) at pH 7.4 & 37° C.

**Q.** With `CNCC1CN(C(=O)CCOCCOCCOCCOC)CCN1C(=O)Oc1ccc(CNC(=O)CCCC/C=C/C(C)C)cc1OC` (stereo not drawn) [Compound 1, (E)-2-methoxy-4-((8-methylnon-6-enamido)methyl)phenyl 2-((methylamino)methyl)-4-(2,5,8,11-tetraoxatetradecan-14-oyl)piperazine-1-carboxylate] as the compound, how does the half-life [1] read?
**A.** Its half-life is under 5 min.

**Q.** And the “stability at pH 4.5 at room temperature in comparison to the non-acylated prodrug (compound 6)” value?
**A.** Its value is “significant and unexpected increase in stability”.

**Q.** What about the half-life [2] of the same compound?
**A.** The half-life was 2600 min.

**Q.** And the half-life [3]?
**A.** The half-life was about 0.8 min.

**Q.** Which half-life [1] does the source give for `CNCC1CN(C(=O)CCOCCOCCOCCOCCOCCOCCOC)CCN1C(=O)Oc1ccc(CNC(=O)CCCC/C=C/C(C)C)cc1OC` (stereo not drawn) [Compound 2, (E)-2-methoxy-4-((8-methylnon-6-enamido)methyl)phenyl 2-((methylamino)methyl)-4-(2,5,8,11,14,17,20-heptaoxatricosan-23-oyl)piperazine-1-carboxylate] here?
**A.** Its half-life is under 5 min.

**Q.** What about the “stability at pH 4.5 at room temperature in comparison to the non-acylated prodrug (compound 6)” value of the same compound?
**A.** The value was “significant and unexpected increase in stability”.

**Q.** What about the half-life [2] of the same compound?
**A.** Its half-life is 2450 min.

**Q.** And the half-life [3]?
**A.** Its half-life is about 0.7 min.

**Q.** What does the source list for `CNCC1CN(C(=O)CCOCCOCCOCCOCCOCCOCCOCCOCCOCCOC)CCN1C(=O)Oc1ccc(CNC(=O)CCCC/C=C/C(C)C)cc1OC` (stereo not drawn) [Compound 3, (E)-2-methoxy-4-((8-methylnon-6-enamido)methyl)phenyl 4-(2,5,8,11,14,17,20,23,26,29-decaoxadotriacontan-32-oyl)-2-((methylamino)methyl)piperazine-1-carboxylate]?
**A.** half-life [1]: < 5 min; stability at pH 4.5 at room temperature in comparison to the non-acylated prodrug (compound 6): significant and unexpected increase in stability; half-life [2]: 3060 min; half-life [3]: ~0.8 min

**Q.** With `CNCC1CN(C(=O)CCOCCOCCOCCOCCOCCOCCOCCOCCOCCOCCOCCOCCOC)CCN1C(=O)Oc1ccc(CNC(=O)CCCC/C=C/C(C)C)cc1OC` (stereo not drawn) [Compound 4, (E)-2-methoxy-4-((8-methylnon-6-enamido)methyl)phenyl 4-(2,5,8,11,14,17,20,23,26,29,32,35,38-tridecaoxahentetracontan-41-oyl)-2-((methylamino)methyl)piperazine-1-carboxylate] as the compound, how does the half-life [1] read?
**A.** Its half-life is under 5 min.

**Q.** What about the half-life [3] of the same compound?
**A.** Its half-life is about 0.6 min.

**Q.** Which results are given for `CNCC1CNCCN1C(=O)Oc1ccc(CNC(=O)CCCC/C=C/C(C)C)cc1OC` (stereo not drawn) [Compound 5]?
**A.** half-life [1]: < 5 min; half-life [3]: ~0.4 min

**Q.** Which results are given for `CNCC1CN(C)CCN1C(=O)Oc1ccc(CNC(=O)CCCC/C=C/C(C)C)cc1OC` (stereo not drawn) [Compound 6, (E)-2-methoxy-4-((8-methylnon-6-enamido)methyl)phenyl 4-methyl-2-((methylamino)methyl)piperazine-1-carboxylate]?
**A.** half-life [1]: < 5 min; half-life [2]: 78 min; half-life [3]: ~0.8 min

**Q.** With `CNCC1CN(C(C)=O)CCN1C(=O)Oc1ccc(CNC(=O)CCCC/C=C/C(C)C)cc1OC` (stereo not drawn) [Compound 7, (E)-2-methoxy-4-((8-methylnon-6-enamido)methyl)phenyl 4-acetyl-2-((methylamino)methyl)piperazine-1-carboxylate] as the compound, how does the half-life [1] read?
**A.** The half-life was under 5 min.

**Q.** What about the “stability at pH 4.5 at room temperature in comparison to the non-acylated prodrug (compound 6)” value of the same compound?
**A.** Its value is “significant and unexpected increase in stability”.

**Q.** And the half-life [2]?
**A.** Its half-life is 6930 min.

**Q.** What about the half-life [3] of the same compound?
**A.** The half-life was about 0.9 min.

**Q.** Which results are given for `CCOC(=O)N1CCN(C(=O)Oc2ccc(CNC(=O)CCCC/C=C/C(C)C)cc2OC)C(CNC)C1` (stereo not drawn) [Compound 8, (E)-4-ethyll-(2-methoxy-4-((8-methylnon-6-enamido)methyl)phenyl) 2-((methylamino)methyl)piperazine-1,4-dicarboxylate]?
**A.** half-life [1]: < 5 min; stability at pH 4.5 at room temperature in comparison to the non-acylated prodrug (compound 6): significant and unexpected increase in stability; half-life [2]: 2770 min; half-life [3]: ~1.3 min
